Results taken from patent US5668152A, “Protein kinase C inhibitors” (priority 1995, dated 1997).
Like-named read-outs stand apart in the source and are kept apart here.

Legend:
protein kinase C alpha = protein kinase C alpha (Homo sapiens, UniProt P17252); experiment: PKC Enzyme assay, alpha isozyme; format: biochemical
Description: (§1) PKC enzymes=alpha, beta I, beta II, gamma, delta, epsilon, eta and zeta.
(§2) Assay components in a total volume of 250 μL are the following:
(§3) Vesicles consisting of 120 μg/mL phosphatidylserine (Avanti Polar Lipids) and sufficient diacylglycerol (Avanti Polar Lipids) to activate the enzyme to maximum activity in 20 mM HEPES buffer (Sigma, St. Louis, Mo.), pH 7.5, 940 μM calcium chloride (Sigma, St. Louis, Mo.) for assaying the alpha, beta I, beta II and gamma enzyme only, 1 mM EGTA for all the enzymes, 10 mM magnesium chloride (Sigma, St. Louis, Mo.) and 30 μM (gamma-32P) ATP (DuPont). For all the enzymes either histone type HL (Worthington) or myelin basic protein is used as substrate. The assay is started by addition of protein kinase C enzyme incubated at 30° C. for 10 minutes and stopped by adding 0.5 mL of cold trichloroacetic acid (Amresco) followed by 100 μL of 1 mg/mL bovine serum albumin (Sigma, St. Louis, Mo.). The precipitate is collected by vacuum filtration on glass fiber filters employing a TOMTEC™ filtration system and quantified by counting in a beta scintillation counter.

protein kinase C beta-1 = protein kinase C beta-1 (Homo sapiens, UniProt P05771); experiment: PKC Enzyme assay, beta I isozyme; format: biochemical
Description: as §1, §2, §3

protein kinase C beta-2 = protein kinase C beta-2 (Homo sapiens, UniProt P05771); experiment: PKC Enzyme assay, beta II isozyme; format: biochemical
Description: as §1, §2, §3

protein kinase C gamma = protein kinase C gamma (Homo sapiens, UniProt P05129); experiment: PKC Enzyme assay, gamma isozyme; format: biochemical
Description: as §1, §2, §3

protein kinase C delta = protein kinase C delta (Homo sapiens, UniProt Q05655); experiment: biochemical
Description: as §1, §2, §3

protein kinase C epsilon = biological target: T1, protein kinase C epsilon (Homo sapiens, UniProt Q02156); experiment: PKC Enzyme assay, epsilon isozyme; format: biochemical
T1 sequence (Q02156 1-737): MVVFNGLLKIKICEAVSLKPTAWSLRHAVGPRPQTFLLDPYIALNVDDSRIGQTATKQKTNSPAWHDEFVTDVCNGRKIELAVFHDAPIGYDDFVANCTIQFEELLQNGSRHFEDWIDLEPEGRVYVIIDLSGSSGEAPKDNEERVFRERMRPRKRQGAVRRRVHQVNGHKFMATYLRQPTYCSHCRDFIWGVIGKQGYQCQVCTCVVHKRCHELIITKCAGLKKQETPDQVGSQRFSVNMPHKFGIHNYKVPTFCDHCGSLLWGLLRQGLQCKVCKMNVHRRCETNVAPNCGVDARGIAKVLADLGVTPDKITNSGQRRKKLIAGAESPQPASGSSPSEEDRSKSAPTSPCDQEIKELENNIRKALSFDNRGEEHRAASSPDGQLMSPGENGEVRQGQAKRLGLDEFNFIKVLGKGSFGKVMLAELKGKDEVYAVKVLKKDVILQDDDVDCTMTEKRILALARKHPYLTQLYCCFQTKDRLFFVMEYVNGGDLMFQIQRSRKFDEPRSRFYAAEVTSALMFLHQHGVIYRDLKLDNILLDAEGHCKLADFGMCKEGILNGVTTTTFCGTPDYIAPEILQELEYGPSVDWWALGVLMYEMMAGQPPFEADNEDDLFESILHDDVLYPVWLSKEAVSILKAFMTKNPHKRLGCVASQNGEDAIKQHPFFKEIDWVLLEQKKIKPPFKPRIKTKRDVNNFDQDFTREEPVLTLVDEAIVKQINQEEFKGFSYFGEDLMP
Description: as §1, §2, §3

protein kinase C zeta = biological target: T2, protein kinase C zeta (Homo sapiens, UniProt Q05513); experiment: PKC Enzyme assay, zeta isozyme; format: biochemical
T2 sequence (Q05513 1-592): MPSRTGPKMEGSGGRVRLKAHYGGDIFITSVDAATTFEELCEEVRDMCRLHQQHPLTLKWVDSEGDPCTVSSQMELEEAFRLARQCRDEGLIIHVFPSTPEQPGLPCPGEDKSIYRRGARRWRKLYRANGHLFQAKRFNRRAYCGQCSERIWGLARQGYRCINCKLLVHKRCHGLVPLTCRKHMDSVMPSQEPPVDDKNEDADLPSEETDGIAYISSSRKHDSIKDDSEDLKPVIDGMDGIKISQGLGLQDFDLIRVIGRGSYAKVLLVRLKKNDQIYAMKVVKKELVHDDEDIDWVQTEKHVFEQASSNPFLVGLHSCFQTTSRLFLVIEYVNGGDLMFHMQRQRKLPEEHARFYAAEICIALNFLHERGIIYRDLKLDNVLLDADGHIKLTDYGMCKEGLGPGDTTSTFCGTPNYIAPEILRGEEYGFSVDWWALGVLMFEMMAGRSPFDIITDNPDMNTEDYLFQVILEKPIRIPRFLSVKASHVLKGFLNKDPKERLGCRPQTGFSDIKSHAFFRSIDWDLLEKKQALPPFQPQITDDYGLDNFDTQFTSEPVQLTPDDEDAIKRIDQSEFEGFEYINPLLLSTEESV
Description: as §1, §2, §3

protein kinase C eta = protein kinase C eta (Homo sapiens, UniProt P24723); experiment: PKC Enzyme assay, eta isozyme; format: biochemical
Description: as §1, §2, §3

[1] = PKC alpha, 30 μM ATP, 30° C., 10 minutes, read-out: IC50 α
[2] = PKC beta-1, 30 μM ATP, 30° C., 10 minutes, read-out: IC50 β1
[3] = PKC beta-2, 30 μM ATP, 30° C., 10 minutes, read-out: IC50 β2
[4] = PKC gamma, 30 μM ATP, 30° C., 10 minutes, read-out: IC50 γ
[5] = PKC delta, 30 μM ATP, 30° C., 10 minutes, read-out: IC50 δ
[6] = PKC epsilon, 30 μM ATP, 30° C., 10 minutes, read-out: IC50 ε
[7] = PKC zeta, 30 μM ATP, 30° C., 10 minutes, read-out: IC50 ζ
[8] = PKC eta, 30 μM ATP, 30° C., 10 minutes, read-out: IC50 η

Chain of protein kinase C beta-2 (P05771 1-673 isoform P05771-2): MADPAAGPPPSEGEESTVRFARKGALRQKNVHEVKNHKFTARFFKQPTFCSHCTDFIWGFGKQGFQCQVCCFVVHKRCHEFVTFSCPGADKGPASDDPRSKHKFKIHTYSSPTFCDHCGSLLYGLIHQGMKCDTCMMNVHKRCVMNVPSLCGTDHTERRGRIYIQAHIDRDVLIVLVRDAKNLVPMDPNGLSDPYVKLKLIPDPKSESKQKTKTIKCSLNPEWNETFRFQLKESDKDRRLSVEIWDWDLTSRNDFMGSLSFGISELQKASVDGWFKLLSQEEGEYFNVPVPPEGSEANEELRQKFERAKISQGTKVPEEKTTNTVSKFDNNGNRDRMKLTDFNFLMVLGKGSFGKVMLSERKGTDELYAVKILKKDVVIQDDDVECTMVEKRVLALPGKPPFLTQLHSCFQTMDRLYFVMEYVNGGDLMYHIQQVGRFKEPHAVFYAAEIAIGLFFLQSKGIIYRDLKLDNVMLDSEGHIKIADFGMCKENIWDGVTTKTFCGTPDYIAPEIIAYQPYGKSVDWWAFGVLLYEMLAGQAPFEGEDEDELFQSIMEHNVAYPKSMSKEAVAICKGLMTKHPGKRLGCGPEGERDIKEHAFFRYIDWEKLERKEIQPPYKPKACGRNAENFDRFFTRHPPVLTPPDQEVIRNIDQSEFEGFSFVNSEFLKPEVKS
Chain of protein kinase C eta (P24723 whole entry): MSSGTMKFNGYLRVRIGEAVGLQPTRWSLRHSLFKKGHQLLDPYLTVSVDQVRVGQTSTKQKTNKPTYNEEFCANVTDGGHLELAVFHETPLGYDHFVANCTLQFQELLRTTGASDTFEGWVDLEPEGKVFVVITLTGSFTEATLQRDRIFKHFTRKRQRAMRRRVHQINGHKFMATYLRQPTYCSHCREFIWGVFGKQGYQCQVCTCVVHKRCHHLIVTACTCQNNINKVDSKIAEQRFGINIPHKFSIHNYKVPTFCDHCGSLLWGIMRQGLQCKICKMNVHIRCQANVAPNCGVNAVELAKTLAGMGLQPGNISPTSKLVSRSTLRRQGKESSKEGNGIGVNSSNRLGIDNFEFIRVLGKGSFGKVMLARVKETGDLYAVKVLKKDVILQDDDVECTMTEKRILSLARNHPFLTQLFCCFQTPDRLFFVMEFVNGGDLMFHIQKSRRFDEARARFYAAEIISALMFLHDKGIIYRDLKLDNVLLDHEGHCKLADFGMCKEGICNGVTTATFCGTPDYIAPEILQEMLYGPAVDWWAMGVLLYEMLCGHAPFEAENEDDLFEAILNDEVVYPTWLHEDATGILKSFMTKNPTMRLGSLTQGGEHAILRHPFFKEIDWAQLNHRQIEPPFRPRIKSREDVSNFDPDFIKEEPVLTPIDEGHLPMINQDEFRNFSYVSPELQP
Chain of protein kinase C beta-1 (P05771 whole entry): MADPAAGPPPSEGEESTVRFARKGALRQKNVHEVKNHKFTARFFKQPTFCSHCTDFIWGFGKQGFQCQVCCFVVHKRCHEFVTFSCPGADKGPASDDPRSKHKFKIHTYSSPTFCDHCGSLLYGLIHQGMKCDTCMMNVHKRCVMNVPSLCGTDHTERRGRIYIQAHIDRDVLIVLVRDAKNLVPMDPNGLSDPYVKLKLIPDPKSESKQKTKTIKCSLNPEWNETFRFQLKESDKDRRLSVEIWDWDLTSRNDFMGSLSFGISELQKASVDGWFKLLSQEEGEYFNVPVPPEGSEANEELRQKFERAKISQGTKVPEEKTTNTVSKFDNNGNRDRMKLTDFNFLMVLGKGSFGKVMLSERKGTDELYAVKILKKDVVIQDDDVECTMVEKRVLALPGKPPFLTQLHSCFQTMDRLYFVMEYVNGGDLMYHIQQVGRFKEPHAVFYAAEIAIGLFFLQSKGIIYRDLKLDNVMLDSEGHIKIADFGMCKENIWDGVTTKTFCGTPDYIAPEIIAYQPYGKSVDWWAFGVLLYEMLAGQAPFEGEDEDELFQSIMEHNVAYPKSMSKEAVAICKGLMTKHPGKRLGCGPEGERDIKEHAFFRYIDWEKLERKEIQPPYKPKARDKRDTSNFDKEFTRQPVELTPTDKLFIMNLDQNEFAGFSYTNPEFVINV
Chain of protein kinase C delta (Q05655 whole entry): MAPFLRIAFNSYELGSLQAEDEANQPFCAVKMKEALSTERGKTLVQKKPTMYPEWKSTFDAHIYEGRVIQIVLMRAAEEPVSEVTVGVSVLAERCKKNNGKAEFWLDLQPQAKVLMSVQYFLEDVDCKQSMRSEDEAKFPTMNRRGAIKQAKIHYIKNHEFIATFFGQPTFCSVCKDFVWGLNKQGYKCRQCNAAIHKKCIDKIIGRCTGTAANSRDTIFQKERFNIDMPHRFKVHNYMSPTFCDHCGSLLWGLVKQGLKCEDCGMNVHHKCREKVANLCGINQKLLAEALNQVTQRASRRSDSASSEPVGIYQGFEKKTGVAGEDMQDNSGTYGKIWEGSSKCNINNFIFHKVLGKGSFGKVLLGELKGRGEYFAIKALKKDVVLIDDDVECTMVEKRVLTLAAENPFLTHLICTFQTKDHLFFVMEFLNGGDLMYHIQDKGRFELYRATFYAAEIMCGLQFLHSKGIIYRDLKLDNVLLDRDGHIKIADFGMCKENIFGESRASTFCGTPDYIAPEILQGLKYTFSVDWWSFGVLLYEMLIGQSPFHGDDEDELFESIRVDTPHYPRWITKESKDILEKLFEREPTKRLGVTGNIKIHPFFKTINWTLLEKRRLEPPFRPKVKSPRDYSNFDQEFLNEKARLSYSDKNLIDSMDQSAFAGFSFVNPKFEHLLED

| IC50 (protein kinase C alpha; [1]) [µM] | IC50 (protein kinase C beta-1; [2]) [µM] | IC50 (protein kinase C beta-2; [3]) [µM] | IC50 (protein kinase C gamma; [4]) [µM] | IC50 (protein kinase C delta; [5]) [µM] | IC50 (protein kinase C zeta; [7]) [µM] | IC50 (protein kinase C eta; [8]) [µM] | Compound | IC50 (protein kinase C epsilon; [6]) [µM] | IC50 (protein kinase C alpha) [µM] | IC50 (protein kinase C beta-1) [µM] | IC50 (protein kinase C beta-2) [µM] | IC50 (protein kinase C gamma) [µM] | IC50 (protein kinase C delta) [µM] | IC50 (protein kinase C epsilon) [µM] | IC50 (protein kinase C eta) [µM] | IC50 (protein kinase C zeta) [µM] |
| --- | --- | --- | --- | --- | --- | --- | --- | --- | --- | --- | --- | --- | --- | --- | --- | --- |
| 3.5 | 0.07 | 0.06 | 8.8 | 6.8 | 33 | 5.7 | Cn1cc(C2=C(c3c4n(c5ccccc35)CCC(CO)(CO)C4)C(=O)NC2=O)c2ccccc21 [Example 2, 3-[8,8-bis(hydroxymethylene)-6,7,8,9-tetrahydropyrido[1,2-a]indol-10-yl]-4-(1-methyl-3-indolyl)-1H-pyrrole-2,5-dione] | 31.8 |  |  |  |  |  |  |  |  |
| 0.32 | 0.036 | 0.025 | 4.4 | 0.41 | 46 | 1.1 | CC(=O)NC[C@H]1O[C@H](OCCn2cc(C3=C(c4cn(C)c5ccccc45)C(=O)NC3=O)c3ccccc32)C[C@@H]1O [Example 3] | 0.6 |  |  |  |  |  |  |  |  |
|  |  |  |  |  |  |  | Cn1cc(C2=C(c3cn(C4CCN(C(=O)OC(C)(C)C)CC4)c4ccccc34)C(=O)NC2=O)c2ccccc21 [Example 6, 3-(1-[4-(1-t-butoxycarbonyl)-piperidinyl]-3-indolyl)-4-(1-methyl-3-indolyl)-1H-pyrrole-2,5-dione] |  | 6.1 | 0.22 | 0.082 | 5.3 | 7.3 | 4.4 | 0.3 |  |
| 0.34 | 0.019 | 0.026 | 1.3 | 0.97 | 9.3 | 0.13 | CC(C)N1CCC(n2cc(C3=C(c4cn(C)c5ccccc45)C(=O)NC3=O)c3ccccc32)CC1 [Example 8, 3-[1-(1-i-Propyl-piperidin-4-yl)-1H-indol-3-yl]-4-(1-methyl-1H-indol-3-yl)-pyrrole-2,5-dione] | 0.39 |  |  |  |  |  |  |  |  |
| 0.27 | 0.014 | 0.0061 | 1.5 | 0.44 | 9.26 | 0.4 | Cn1cc(C2=C(c3c4n(c5ccccc35)CCC(CO)C4)C(=O)NC2=O)c2ccccc21 (stereo not drawn) [Example 9, 3-[8-(Hydroxymethyl)-6,7,8,9-tetrahydropyrido[1,2-a]indol-10-yl]-4-(1-methyl-3-indolyl)-1H-pyrrole-2,5 dione] | 3.8 |  |  |  |  |  |  |  |  |
|  |  |  |  |  |  |  | CN(C)CCCn1cc(C2=C(c3c[nH]c4ccccc34)C(=O)NC2=O)c2ccccc21 [Example 10] |  | 0.66 | 0.05 | 0.05 | 1.04 | 0.92 | 0.93 | 0.09 | 23 |
| 0.4 | 0.02 | 0.005 | 0.3 | 0.3 |  | 0.04 | CCN1CCC(n2cc(C3=C(c4cn(C)c5ccccc45)C(=O)NC3=O)c3ccccc32)CC1 [Example 40, 3-[1-(1-Ethyl-piperidin-4-yl)-indol-3-yl]-4-(1-methyl-indol-3-yl)-pyrrole-2,5-dione] | 0.4 |  |  |  |  |  |  |  |  |
| 10 | 1.6 | 0.36 |  | 9 | > 100 | 4 | Cn1cc(C2=C(c3cn(CCO[C@@H]4O[C@H](CN=[N+]=[N-])[C@H](O)[C@H](O)[C@H]4O)c4ccccc34)C(=O)NC2=O)c2ccccc21 [Example 57] | > 100 |  |  |  |  |  |  |  |  |
| 8.1 | 0.39 |  | 30 | 8.4 | 47 | 3.4 | Cn1cc(C2=C(c3cn(CCO[C@H]4O[C@H](CN)[C@H](O)[C@H](O)[C@H]4O)c4ccccc34)C(=O)NC2=O)c2ccccc21 [Example 65] |  |  |  |  |  |  |  |  |  |
| 9 | 0.24 |  | 30 | 4.4 | 37 | 3 | Cn1cc(C2=C(c3cn(CCOC4OC(CN)C(O)C(O)C4O)c4ccccc34)C(=O)NC2=O)c2ccccc21 (stereo not drawn) [Example 66] |  |  |  |  |  |  |  |  |  |

| Compound | IC50 (protein kinase C alpha; [1]) [µM] | IC50 (protein kinase C beta-1; [2]) [µM] | IC50 (protein kinase C beta-2; [3]) [µM] | IC50 (protein kinase C gamma; [4]) [µM] | IC50 (protein kinase C delta; [5]) [µM] | IC50 (protein kinase C zeta; [7]) [µM] | IC50 (protein kinase C eta; [8]) [µM] | IC50 (protein kinase C epsilon; [6]) [µM] | IC50 (protein kinase C alpha) [µM] | IC50 (protein kinase C beta-1) [µM] | IC50 (protein kinase C beta-2) [µM] | IC50 (protein kinase C gamma) [µM] | IC50 (protein kinase C delta) [µM] | IC50 (protein kinase C epsilon) [µM] | IC50 (protein kinase C eta) [µM] | IC50 (protein kinase C zeta) [µM] |
| --- | --- | --- | --- | --- | --- | --- | --- | --- | --- | --- | --- | --- | --- | --- | --- | --- |
| CC(=O)OCC1(COC(C)=O)CCn2c(c(C3=C(c4cn(C)c5ccccc45)C(=O)NC3=O)c3ccccc32)C1 [Example 1, 3-[8,8-bis(acetoxymethylene)-6,7,8,9-tetrahydropyrido[1,2-a]indol-10-yl]-4-(1-methyl-3-indolyl)-1H-pyrrole-2,5-dione] | 9.8 | 0.36 | 0.3 | 38 | 47 | 50 | 121 | 150 |  |  |  |  |  |  |  |  |
| Cn1cc(C2=C(c3cn(C4CCN(Cc5ccccc5)CC4)c4ccccc34)C(=O)NC2=O)c2ccccc21 [Example 4, 3-(1-[4-(1-benzyl)-piperidinyl]-3-indolyl)-4-(1-methyl-3-indolyl)-1H-pyrrole-2,5-dione] | 6 | 0.05 | 0.03 | 7 | 6 |  | 0.5 | 4 |  |  |  |  |  |  |  |  |
| Cn1cc(C2=C(c3cn(C4CCN(C(=NC(=O)OC(C)(C)C)NC(=O)OC(C)(C)C)CC4)c4ccccc34)C(=O)NC2=O)c2ccccc21 [Example 5, [t-Butoxycarbonylimino-(4-{3-[4-(1-methyl-1H-indol-3-yl)-2,5-dioxo-2,5-dihydro-1H-pyrrole-3-yl]-indol-1-yl}-piperidin-1-yl)-methyl]-carbamic acid t-butyl ester] | 0.37 | 0.044 | 0.029 | 0.5 | 0.47 | 42 | 0.15 | 2.6 |  |  |  |  |  |  |  |  |
| CC(C)(C)OC(=O)N1CCC(n2cc(C3=C(c4c[nH]c5ccccc45)C(=O)NC3=O)c3ccccc32)CC1 [Example 7] | 3.3 | 0.23 | 0.1 | 2.8 | 4.1 | 31 | 6.2 | 6.3 |  |  |  |  |  |  |  |  |
| CN(C)CCCn1cc(C2=C(c3cn(C)c4ccccc34)C(=O)NC2=O)c2ccccc21 [Example 13] |  |  |  | 1.7 | 0.93 | 25 | 0.47 | 3.6 |  | 0.14 | 0.06 |  |  |  |  |  |
| Cn1cc(C2=C(c3cn(C4CCN(Cc5ccccn5)CC4)c4ccccc34)C(=O)NC2=O)c2ccccc21 [Example 49] |  |  |  | 2 |  | 8 |  | 0.3 |  |  |  |  |  |  |  |  |
| Cn1cc(C2=C(c3cn(C4CCNCC4)c4ccccc34)C(=O)NC2=O)c2ccccc21 [Example 52] |  |  |  |  |  | 4 | 0.2 | 1 |  |  |  |  |  |  |  |  |
